Measured values: ChEMBL document CHEMBL5036347, “Design of the naphthyl-diarylpyrimidines as potent non-nucleoside reverse transcriptase inhibitors (NNRTIs) via structure-based extension into the entrance channel” (Eur J Med Chem, 2021)

Tested on: not listed separately
Assay: Resistance fold, ratio of EC50 for HIV1 harboring reverse transcriptase Y181C mutant […] to EC50 for wild type HIV1 […]
Format: functional
Conditions: not given

SMILES	Ratio EC50
COc1cc2cc(C#N)ccc2c(OC)c1Oc1cc(NCC2CC2)nc(Nc2ccc(C#N)cc2)n1	9
CCCC(CCC)Nc1cc(Oc2c(OC)cc3cc(C#N)ccc3c2OC)nc(Nc2ccc(C#N)cc2)n1	37
COc1cc2cc(C#N)ccc2c(OC)c1Oc1cc(NCCCOC(C)C)nc(Nc2ccc(C#N)cc2)n1	13

Tested on: not listed separately
Assay: Resistance fold, ratio of EC50 for HIV1 harboring reverse transcriptase E138K mutant […] to EC50 for wild type HIV1 […]
Format: functional
Conditions: not given

SMILES	Ratio EC50
COc1cc2cc(C#N)ccc2c(OC)c1Oc1cc(NCC2CC2)nc(Nc2ccc(C#N)cc2)n1	5
CCCC(CCC)Nc1cc(Oc2c(OC)cc3cc(C#N)ccc3c2OC)nc(Nc2ccc(C#N)cc2)n1	2
COc1cc2cc(C#N)ccc2c(OC)c1Oc1cc(NCCCOC(C)C)nc(Nc2ccc(C#N)cc2)n1	1

Tested on: not listed separately
Assay: Resistance fold, ratio of EC50 for HIV1 harboring reverse transcriptase L100I mutant […] to EC50 for wild type HIV1 […]
Format: functional
Conditions: not given

SMILES	Ratio EC50
COc1cc2cc(C#N)ccc2c(OC)c1Oc1cc(NCC2CC2)nc(Nc2ccc(C#N)cc2)n1	39
CCCC(CCC)Nc1cc(Oc2c(OC)cc3cc(C#N)ccc3c2OC)nc(Nc2ccc(C#N)cc2)n1	181
COc1cc2cc(C#N)ccc2c(OC)c1Oc1cc(NCCCOC(C)C)nc(Nc2ccc(C#N)cc2)n1	29

Tested on: Human immunodeficiency virus 1
Assay: Antiviral activity against HIV1 harboring reverse transcriptase Y181C mutant infected in human MT4 cells assessed as protection against virus-induced cytopathic effect incubated for 5 days by MTT assay
Format: functional, organism-based
Conditions: Human immunodeficiency virus 1, MT4, 120 h

SMILES	IC50 [nM]	EC50 [µM]
COc1cc2cc(C#N)ccc2c(OC)c1Oc1cc(NCC2CC2)nc(Nc2ccc(C#N)cc2)n1	210	–
CCCC(CCC)Nc1cc(Oc2c(OC)cc3cc(C#N)ccc3c2OC)nc(Nc2ccc(C#N)cc2)n1	–	26.4
COc1cc2cc(C#N)ccc2c(OC)c1Oc1cc(NCCCOC(C)C)nc(Nc2ccc(C#N)cc2)n1	–	0.55

Tested on: Human immunodeficiency virus 2
Assay: Anti-HIV activity against HIV2 ROD infected in human MT4 cells assessed as reduction in virus-induced cytopathic effect incubated for 5 days by MTT assay
Format: functional, organism-based
Conditions: Human immunodeficiency virus 2, ROD, MT4, 120 h

SMILES	EC50 [µM]
COc1cc2cc(C#N)ccc2c(OC)c1Oc1cc(NCC2CC2)nc(Nc2ccc(C#N)cc2)n1	213
CCCC(CCC)Nc1cc(Oc2c(OC)cc3cc(C#N)ccc3c2OC)nc(Nc2ccc(C#N)cc2)n1	> 1000
COc1cc2cc(C#N)ccc2c(OC)c1Oc1cc(NCCCOC(C)C)nc(Nc2ccc(C#N)cc2)n1	> 1000

Tested on: not listed separately
Assay: Resistance fold, ratio of EC50 for HIV1 harboring reverse transcriptase K103N/Y181C double mutant […] to EC50 for wild type HIV1 […]
Format: functional
Conditions: not given

SMILES	Ratio EC50
COc1cc2cc(C#N)ccc2c(OC)c1Oc1cc(NCC2CC2)nc(Nc2ccc(C#N)cc2)n1	56
CCCC(CCC)Nc1cc(Oc2c(OC)cc3cc(C#N)ccc3c2OC)nc(Nc2ccc(C#N)cc2)n1	>1416
COc1cc2cc(C#N)ccc2c(OC)c1Oc1cc(NCCCOC(C)C)nc(Nc2ccc(C#N)cc2)n1	48

Molecular target: Human immunodeficiency virus type 1 reverse transcriptase (Human immunodeficiency virus 1, UniProt Q72547)
Assay: Inhibition of wild type HIV1 reverse transcriptase using oligo(dT)16 as primer measured after 40 mins by picogreen-dye based spectrofluorimetric analysis
Conditions: not given

SMILES	IC50 [nM]
COc1cc2cc(C#N)ccc2c(OC)c1Oc1cc(NCC2CC2)nc(Nc2ccc(C#N)cc2)n1	90
CCCC(CCC)Nc1cc(Oc2c(OC)cc3cc(C#N)ccc3c2OC)nc(Nc2ccc(C#N)cc2)n1	610
COc1cc2cc(C#N)ccc2c(OC)c1Oc1cc(NCCCOC(C)C)nc(Nc2ccc(C#N)cc2)n1	320

Tested on: Human immunodeficiency virus 1
Assay: Antiviral activity against HIV1 harboring reverse transcriptase F227L/V106A mutant infected in human MT4 cells assessed as protection against virus-induced cytopathic effect incubated for 5 days by MTT assay
Format: functional, organism-based
Conditions: Human immunodeficiency virus 1, MT4, 120 h

SMILES	EC50 [µM]
COc1cc2cc(C#N)ccc2c(OC)c1Oc1cc(NCC2CC2)nc(Nc2ccc(C#N)cc2)n1	74.4
CCCC(CCC)Nc1cc(Oc2c(OC)cc3cc(C#N)ccc3c2OC)nc(Nc2ccc(C#N)cc2)n1	> 1000
COc1cc2cc(C#N)ccc2c(OC)c1Oc1cc(NCCCOC(C)C)nc(Nc2ccc(C#N)cc2)n1	> 1000

Tested on: not listed separately
Assay: Resistance fold, ratio of EC50 for HIV1 harboring reverse transcriptase K103N mutant […] to EC50 for wild type HIV1 […]
Format: functional
Conditions: not given

SMILES	Ratio EC50
COc1cc2cc(C#N)ccc2c(OC)c1Oc1cc(NCC2CC2)nc(Nc2ccc(C#N)cc2)n1	1
CCCC(CCC)Nc1cc(Oc2c(OC)cc3cc(C#N)ccc3c2OC)nc(Nc2ccc(C#N)cc2)n1	1
COc1cc2cc(C#N)ccc2c(OC)c1Oc1cc(NCCCOC(C)C)nc(Nc2ccc(C#N)cc2)n1	3

Tested on: not listed separately
Assay: Selectivity index, ratio of CC50 for cytotoxicity against human MT4 cells to EC50 of Anti-HIV activity against HIV-1 IIIB infected in human MT4
Format: toxicity, cell-based
Conditions: read-out: Selectivity Index

SMILES	selectivity ratio
COc1cc2cc(C#N)ccc2c(OC)c1Oc1cc(NCC2CC2)nc(Nc2ccc(C#N)cc2)n1	> 10500
CCCC(CCC)Nc1cc(Oc2c(OC)cc3cc(C#N)ccc3c2OC)nc(Nc2ccc(C#N)cc2)n1	> 330
COc1cc2cc(C#N)ccc2c(OC)c1Oc1cc(NCCCOC(C)C)nc(Nc2ccc(C#N)cc2)n1	> 5380

Tested on: Human immunodeficiency virus 1
Assay: Antiviral activity against HIV1 harboring reverse transcriptase K103N mutant infected in human MT4 cells assessed as protection against virus-induced cytopathic effect incubated for 5 days by MTT assay
Format: functional, organism-based
Conditions: Human immunodeficiency virus 1, MT4, 120 h

SMILES	EC50 [nM]
COc1cc2cc(C#N)ccc2c(OC)c1Oc1cc(NCC2CC2)nc(Nc2ccc(C#N)cc2)n1	31
CCCC(CCC)Nc1cc(Oc2c(OC)cc3cc(C#N)ccc3c2OC)nc(Nc2ccc(C#N)cc2)n1	360
COc1cc2cc(C#N)ccc2c(OC)c1Oc1cc(NCCCOC(C)C)nc(Nc2ccc(C#N)cc2)n1	33

Tested on: not listed separately
Assay: Cytotoxicity against human MT4 cells assessed as reduction in cell viability incubated for 5 days by MTT assay
Format: cell-based
Conditions: human, MT4 cells; time 5 day

SMILES	CC50 at 120 h [µM]
COc1cc2cc(C#N)ccc2c(OC)c1Oc1cc(NCC2CC2)nc(Nc2ccc(C#N)cc2)n1	> 125
CCCC(CCC)Nc1cc(Oc2c(OC)cc3cc(C#N)ccc3c2OC)nc(Nc2ccc(C#N)cc2)n1	> 125
COc1cc2cc(C#N)ccc2c(OC)c1Oc1cc(NCCCOC(C)C)nc(Nc2ccc(C#N)cc2)n1	> 125

Tested on: not listed separately
Assay: Resistance fold, ratio of EC50 for HIV1 harboring reverse transcriptase Y188L mutant […] to EC50 for wild type HIV1 […]
Format: functional
Conditions: not given

SMILES	Ratio EC50
COc1cc2cc(C#N)ccc2c(OC)c1Oc1cc(NCC2CC2)nc(Nc2ccc(C#N)cc2)n1	58
CCCC(CCC)Nc1cc(Oc2c(OC)cc3cc(C#N)ccc3c2OC)nc(Nc2ccc(C#N)cc2)n1	>1416
COc1cc2cc(C#N)ccc2c(OC)c1Oc1cc(NCCCOC(C)C)nc(Nc2ccc(C#N)cc2)n1	58

Tested on: Human immunodeficiency virus 1
Assay: Antiviral activity against HIV1 harboring reverse transcriptase Y188L mutant infected in human MT4 cells assessed as protection against virus-induced cytopathic effect incubated for 5 days by MTT assay
Format: functional, organism-based
Conditions: Human immunodeficiency virus 1, MT4, 120 h

SMILES	EC50 [µM]
COc1cc2cc(C#N)ccc2c(OC)c1Oc1cc(NCC2CC2)nc(Nc2ccc(C#N)cc2)n1	1.42
CCCC(CCC)Nc1cc(Oc2c(OC)cc3cc(C#N)ccc3c2OC)nc(Nc2ccc(C#N)cc2)n1	> 1000
COc1cc2cc(C#N)ccc2c(OC)c1Oc1cc(NCCCOC(C)C)nc(Nc2ccc(C#N)cc2)n1	2.51

Tested on: Human immunodeficiency virus 1
Assay: Anti-HIV activity against HIV-1 IIIB infected in human MT4 cells assessed as reduction in virus-induced cytopathic effect incubated for 5 days by MTT assay
Format: functional, organism-based
Conditions: Human immunodeficiency virus 1, IIIB, MT4, 120 h

SMILES	EC50 [nM]
COc1cc2cc(C#N)ccc2c(OC)c1Oc1cc(NCC2CC2)nc(Nc2ccc(C#N)cc2)n1	25
CCCC(CCC)Nc1cc(Oc2c(OC)cc3cc(C#N)ccc3c2OC)nc(Nc2ccc(C#N)cc2)n1	710
COc1cc2cc(C#N)ccc2c(OC)c1Oc1cc(NCCCOC(C)C)nc(Nc2ccc(C#N)cc2)n1	43

Tested on: Human immunodeficiency virus 1
Assay: Antiviral activity against HIV1 harboring reverse transcriptase L100I mutant infected in human MT4 cells assessed as protection against virus-induced cytopathic effect incubated for 5 days by MTT assay
Format: functional, organism-based
Conditions: Human immunodeficiency virus 1, MT4, 120 h

SMILES	EC50 [nM]
COc1cc2cc(C#N)ccc2c(OC)c1Oc1cc(NCC2CC2)nc(Nc2ccc(C#N)cc2)n1	960
CCCC(CCC)Nc1cc(Oc2c(OC)cc3cc(C#N)ccc3c2OC)nc(Nc2ccc(C#N)cc2)n1	128000
COc1cc2cc(C#N)ccc2c(OC)c1Oc1cc(NCCCOC(C)C)nc(Nc2ccc(C#N)cc2)n1	1230

Tested on: Human immunodeficiency virus 1
Assay: Antiviral activity against HIV1 harboring reverse transcriptase K103N/Y181C double mutant infected in human MT4 cells assessed as protection against virus-induced cytopathic effect incubated for 5 days by MTT assay
Format: functional, organism-based
Conditions: Human immunodeficiency virus 1, MT4, 120 h

SMILES	EC50 [µM]
COc1cc2cc(C#N)ccc2c(OC)c1Oc1cc(NCC2CC2)nc(Nc2ccc(C#N)cc2)n1	1.37
CCCC(CCC)Nc1cc(Oc2c(OC)cc3cc(C#N)ccc3c2OC)nc(Nc2ccc(C#N)cc2)n1	> 1000
COc1cc2cc(C#N)ccc2c(OC)c1Oc1cc(NCCCOC(C)C)nc(Nc2ccc(C#N)cc2)n1	2.07

Tested on: not listed separately
Assay: Resistance fold, ratio of EC50 for HIV1 harboring reverse transcriptase F227L/V106A double mutant […] to EC50 for wild type HIV1 […]
Format: functional
Conditions: not given

SMILES	Ratio EC50
COc1cc2cc(C#N)ccc2c(OC)c1Oc1cc(NCC2CC2)nc(Nc2ccc(C#N)cc2)n1	3026
CCCC(CCC)Nc1cc(Oc2c(OC)cc3cc(C#N)ccc3c2OC)nc(Nc2ccc(C#N)cc2)n1	>1416
COc1cc2cc(C#N)ccc2c(OC)c1Oc1cc(NCCCOC(C)C)nc(Nc2ccc(C#N)cc2)n1	>23202

Tested on: Human immunodeficiency virus 1
Assay: Antiviral activity against HIV1 harboring reverse transcriptase E138K mutant infected in human MT4 cells assessed as protection against virus-induced cytopathic effect incubated for 5 days by MTT assay
Format: functional, organism-based
Conditions: Human immunodeficiency virus 1, MT4, 120 h

SMILES	EC50 [nM]
COc1cc2cc(C#N)ccc2c(OC)c1Oc1cc(NCC2CC2)nc(Nc2ccc(C#N)cc2)n1	59
CCCC(CCC)Nc1cc(Oc2c(OC)cc3cc(C#N)ccc3c2OC)nc(Nc2ccc(C#N)cc2)n1	1590
COc1cc2cc(C#N)ccc2c(OC)c1Oc1cc(NCCCOC(C)C)nc(Nc2ccc(C#N)cc2)n1	57
